Laboratory results reported in patent publication US8796292B2, “Selective antibacterials for clostridium difficile infections” (GLSynthesis Inc., priority 2009, dated 2014).
Converted amounts (≈) assume the structure as drawn. Counter-ions that a name gives are not always drawn. Like-named read-outs stand apart in the source and are kept apart here. Each block holds one molecule with its values, some of them ahead of it.

Key:
C. difficile = test: agar dilution MIC assay of anaerobic bacteria; type: cell-based, Clostridium difficile
Procedure: (§1) Each compound was assayed against a panel of anaerobic bacteria in culture, consisting of Gram-positive organisms, such as Lactobacilli, Bifidobacteria, Clostridium spp., and Gram-negative bacteria, such as […] fragilis spp., according to guidelines of the Clinical and Laboratory Standards Institute (CLSI document M11-A7, CLSI, Wayne, Pa., 2007). […] One tenth mL of diluted bacteria containing 500-1000 colony-forming units (CFU) was plated and spread, and the plates incubated at 37° C. for 24-48 hours. MIC (minimum inhibitory concentration) is equivalent to the lowest concentration in μg/ml at which growth, i.e., colony formation, is not observed. […] Bacteria were assayed using a reference agar dilution method. Drug dilutions and drug-supplemented agar plates were prepared manually. The test organisms were maintained frozen at −80° C. The isolates were sub-cultured on Supplemented Brucella Agar (SBA) plates in a Bactron II anaerobic chamber and incubated for 48 hours at 35-36° C. in the Bactron II anaerobe chamber. Following inoculation, the drug-supplemented plates were incubated at 35° C. for 48 hours in the anaerobic environment (5% hydrogen, 5% carbon dioxide, 90% nitrogen) of the Bactron II. The MIC in μg/ml was read per Clinical and Laboratory Standards Institute guidelines.

C. diff. (ATCC43255) = test: clindamycin-induced C. diff. infection model in Syrian golden hamsters; type: in vivo; settings: 50 mg/kg PO bid for 3 days, n = 6 hamsters
Excerpt: Compound 359E was given orally as a suspension in 1% carboxymethylcellulose to Syrian Golden hamsters, pretreated subcutaneously with clindamycin and infected orally with C. diff. (ATCC43255) as described in Table 5.

Ba. fragilis = test: agar dilution MIC assay of anaerobic bacteria; type: cell-based; settings: Bacteroides fragilis, B. fragilis, Micromyx Number 0123 (ATCC strain), Table 2
Procedure: as §1

MIC (C. difficile; Clostridioides difficile, C. diff. Strain no. 18285, Table 4, read-out: MIC): 8 µg/mL (≈ 17.7 µM) | MIC (C. difficile; Clostridioides difficile, C. diff. Strain no. 19265, Table 4, read-out: MIC): 4 µg/mL (≈ 8.86 µM) | MIC (C. difficile; Clostridioides difficile, C. diff. Strain no. 19273, Table 4, read-out: MIC): 8 µg/mL (≈ 17.7 µM) | MIC (C. difficile; Clostridioides difficile, C. diff. Strain no. 19281, Table 4, read-out: MIC): 4 µg/mL (≈ 8.86 µM) | MIC (C. difficile; Clostridioides difficile, C. diff. Strain no. 19291, Table 4, read-out: MIC): 4 µg/mL (≈ 8.86 µM) | MIC (C. difficile; Clostridioides difficile, C. diff. Strain no. 19369, Table 4, read-out: MIC): 16 µg/mL (≈ 35.4 µM) | MIC (C. difficile; Clostridioides difficile, C. diff. Strain no. 19382, Table 4, read-out: MIC): 4 µg/mL (≈ 8.86 µM) | MIC (C. difficile; Clostridioides difficile, C. diff. Strain no. 19540, Table 4, read-out: MIC): 4 µg/mL (≈ 8.86 µM) | MIC (C. difficile; Clostridioides difficile, C. diff. Strain no. 19580, Table 4, read-out: MIC): 2 µg/mL (≈ 4.43 µM) | MIC (C. difficile; Clostridioides difficile, C. diff. Strain no. 19680, Table 4, read-out: MIC): 4 µg/mL (≈ 8.86 µM) | MIC (C. difficile; Clostridioides difficile, C. diff. Strain no. 19681, Table 4, read-out: MIC): 4 µg/mL (≈ 8.86 µM) | MIC (C. difficile; Clostridioides difficile, C. diff. Strain no. 19683, Table 4, read-out: MIC): 8 µg/mL (≈ 17.7 µM) | MIC (C. difficile; Clostridioides difficile, C. diff. Strain no. 19687, Table 4, read-out: MIC): 8 µg/mL (≈ 17.7 µM) | MIC (C. difficile; Clostridioides difficile, C. diff. Strain no. 20066, Table 4, read-out: MIC): 8 µg/mL (≈ 17.7 µM) | MIC (C. difficile; Clostridioides difficile, C. diff. Strain no. 20152, Table 4, read-out: MIC): 16 µg/mL (≈ 35.4 µM) | MIC (C. difficile; Clostridioides difficile, C. diff. Strain no. 20307, Table 4, read-out: MIC): 4 µg/mL (≈ 8.86 µM) | MIC (C. difficile; Clostridioides difficile, C. diff. Strain no. 20494, Table 4, read-out: MIC): 4 µg/mL (≈ 8.86 µM) | MIC (C. difficile; Clostridioides difficile, C. diff. Strain no. 20680, Table 4, read-out: MIC): 4 µg/mL (≈ 8.86 µM) | MIC (C. difficile; Clostridioides difficile, C. diff. Strain no. 20934, Table 4, read-out: MIC): 4 µg/mL (≈ 8.86 µM) | MIC (C. difficile; Clostridioides difficile, C. diff. Strain no. 21099, Table 4, read-out: MIC): 2 µg/mL (≈ 4.43 µM)
SMILES: O=c1[nH]c(NCc2ccc(Cl)c(Cl)c2)nc2ncn(CCCCN3CCOCC3)c12 [Compound 258D, 7-[4-(N-morpholinyl)butyl]-2-(3,4-dichlorobenzylamino)-6-oxopurine]

SMILES: CN[C@H](CC(C)C)C(=O)N[C@H]1C(=O)N[C@@H](CC(N)=O)C(=O)N[C@H]2C(=O)N[C@H]3C(=O)N[C@H](C(=O)N[C@H](C(=O)O)c4cc(O)cc(O)c4-c4cc3ccc4O)[C@H](O)c3ccc(c(Cl)c3)Oc3cc2cc(c3O[C@@H]2O[C@H](CO)[C@@H](O)[C@H](O)[C@H]2O[C@H]2C[C@](C)(N)[C@H](O)[C@H](C)O2)Oc2ccc(cc2Cl)[C@H]1O [vancomycin HCl, reference compound]
% Survivors at 120 hr (C. diff. (ATCC43255)): 100% | Survivors at 24 hr (C. diff. (ATCC43255)): 6 | Survivors at 48 hr (C. diff. (ATCC43255)): 6 | Survivors at 66 hr (C. diff. (ATCC43255)): 6 | Survivors at 72 hr (C. diff. (ATCC43255)): 6 | Survivors at 96 hr (C. diff. (ATCC43255)): 6

MIC (C. difficile; C. diff. Strain no. 18285, Table 4): 4 µg/mL (≈ 9.45 µM) | MIC (C. difficile; C. diff. Strain no. 19265, Table 4): 2 µg/mL (≈ 4.72 µM) | MIC (C. difficile; C. diff. Strain no. 19273, Table 4): 4 µg/mL (≈ 9.45 µM) | MIC (C. difficile; C. diff. Strain no. 19281, Table 4): 2 µg/mL (≈ 4.72 µM) | MIC (C. difficile; C. diff. Strain no. 19291, Table 4): 2 µg/mL (≈ 4.72 µM) | MIC (C. difficile; C. diff. Strain no. 19369, Table 4): 8 µg/mL (≈ 18.9 µM) | MIC (C. difficile; C. diff. Strain no. 19382, Table 4): 2 µg/mL (≈ 4.72 µM) | MIC (C. difficile; C. diff. Strain no. 19540, Table 4): 2 µg/mL (≈ 4.72 µM) | MIC (C. difficile; C. diff. Strain no. 19580, Table 4): 2 µg/mL (≈ 4.72 µM) | MIC (C. difficile; C. diff. Strain no. 19680, Table 4): 2 µg/mL (≈ 4.72 µM) | MIC (C. difficile; C. diff. Strain no. 19681, Table 4): 2 µg/mL (≈ 4.72 µM) | MIC (C. difficile; C. diff. Strain no. 19683, Table 4): 4 µg/mL (≈ 9.45 µM) | MIC (C. difficile; C. diff. Strain no. 19687, Table 4): 4 µg/mL (≈ 9.45 µM) | MIC (C. difficile; C. diff. Strain no. 20066, Table 4): 4 µg/mL (≈ 9.45 µM) | MIC (C. difficile; C. diff. Strain no. 20152, Table 4): 8 µg/mL (≈ 18.9 µM) | MIC (C. difficile; C. diff. Strain no. 20307, Table 4): 2 µg/mL (≈ 4.72 µM) | MIC (C. difficile; C. diff. Strain no. 20494, Table 4): 2 µg/mL (≈ 4.72 µM) | MIC (C. difficile; C. diff. Strain no. 20680, Table 4): 2 µg/mL (≈ 4.72 µM) | MIC (C. difficile; C. diff. Strain no. 20934, Table 4): 1 µg/mL (≈ 2.36 µM) | MIC (C. difficile; C. diff. Strain no. 21099, Table 4): 2 µg/mL (≈ 4.72 µM)
SMILES: O=c1[nH]c(NCc2ccc(Cl)c(Cl)c2)nc2ncn(CCN3CCOCC3)c12 [Compound 362E]
activity against C. diff. strains compared with 359E (in words) (C. difficile; summary of Table 4): preferred activity against C. diff. strains

MIC (Ba. fragilis): > 32 µg/mL | MIC (C. difficile; Clostridioides difficile, C. diff., Micromyx Number 3579, Table 2, read-out: MIC): 2 µg/mL (≈ 5.23 µM) | MIC (C. difficile; Clostridioides difficile, C. diff., Micromyx Number 3580, Table 2, read-out: MIC): 2 µg/mL (≈ 5.23 µM) | MIC (C. difficile; Clostridioides difficile, C. diff., Micromyx Number 3581, Table 2, read-out: MIC): 1 µg/mL (≈ 2.62 µM) | MIC (C. difficile; Clostridioides difficile, C. diff., Micromyx Number 3582 (ATCC strain), Table 2, read-out: MIC): 2 µg/mL (≈ 5.23 µM)
SMILES: CCOCCn1cnc2nc(NCc3ccc(Cl)c(Cl)c3)[nH]c(=O)c21 [Compound 325E]
